Measurements reported in patent US20230391772A1, “METHODS AND COMPOSITIONS FOR TARGETED PROTEIN DEGRADATION” (Ranok Therapeutics (Hangzhou) Co. Ltd., priority 2020, published 2023).

Legend:
[1] = test system: NCI-H358 human non-small cell lung cancer; assay: NCI-H358 CCK-8 proliferation assay; type: cell-based; conditions: NCI-H358 cells, 72 hr
Method in brief: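 Proliferation of mutant-KRAS(G12C) cells (2 copies in MIA PaCa-2, single copy in NCI-H358/NCI-H23) measured with CCK-8 after treatment across 20 μM–1.02 nM; inhibition expressed relative to vehicle-treated wells after subtracting no-cell background.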

HSP90a protein = molecular target: T1, HSP90a protein (Homo sapiens, UniProt P07900); assay: HSP90α-binding fluorescent polarization (FP) assay, BODIPY-labeled RNK04010 probe; conditions: FP competition with RNK04010 (BODIPY-labeled), 5 nM, 300 min at 25° C.
T1 construct: purchased BPS Bioscience 50298
Method in brief: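 Compound dilutions (20 μM to 5.2 nM, 2.5-fold) are combined with 5 nM final labeled probe, and HSP90a N-terminal protein is added last. Plates are shaken briefly and held at 25° C for 120 min (FITC-geldanamycin) or 300 min (BODIPY-RNK04010), then FP is measured.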

[2] = test system: NCI-H23 human non-small cell lung cancer; assay: NCI-H23 CCK-8 proliferation assay; type: cell-based; conditions: NCI-H23 cells, 72 hr
Procedure: The following cancer cell lines were employed: BT-474 human breast carcinoma (ATCC, #HTB-20); MIA PaCa-2 human pancreatic carcinoma [2 copies KRAS(G12C)](ATCC, #CRL-1420); NCI-H23 human non-small cell lung cancer [1 copy KRAS(G12C)](ATCC, #CRL-5800); NCI-H358 human non-small cell lung cancer [1 copy KRAS(G12C)](ATCC, #CRL-5807); LU65A human lung carcinoma (Pharmaron, Beijing, China). Cell lines were cultured essentially according to ATCC and Pharmaron recommendations.
Cancer Cell Line Proliferation (CCK-8) Assays
3-fold serial dilutions of each test compound were prepared ranging from 20 μM to 1.02 nM.
% Inhibition=100−(D−B)/(S−B)*100%. • S: Absorbance of cells treated with DMSO • D: Absorbance of compound-treated cells • B: Absorbance of medium with DMSO without cells

Row | EC50 [1] | IC50 (HSP90a protein) | EC50 [2] | Structure (SMILES)
1 | 0.1 to 1 µM | < 0.1 µM | > 1 µM | CC(=O)N1CCN(c2nc(NCCC(=O)N[C@H](C)c3ccc(CN4CCC(Cc5ccc(-n6c(O)nnc6-c6cc(C(C)C)c(O)cc6O)cc5)CC4)cc3)nc3c2CCN(c2cc(O)cc4ccccc24)C3)CC1 [Compound 60, (R)-3-((4-(4-acetylpiperazin-1-yl)-7-(3-hydroxynaphthalen-1-yl)-5,6,7,8-tetrahydropyrido[3,4-d]pyrimidin-2-yl)amino)-N-(1-(4-((4-(4-(3-(2,4-dihydroxy-5-isopropylphenyl)-5-hydroxy-4H-1,2,4-triazol-4-yl)benzyl)piperidin-1-yl)methyl)phenyl)ethyl)propanamide, trifluoroacetic acid]
2 | 0.1 to 1 µM | 0.1 to 1 µM | > 1 µM | CCCc1cc(-c2nnc(O)n2-c2ccc(CN3CCN(CC4CCN(C(=O)CCNc5nc6c(c(N7CCN(C(C)=O)CC7)n5)CCN(c5cc(O)cc7ccccc57)C6)CC4)CC3)cc2)c(O)cc1O [Compound 59, 3-((4-(4-acetylpiperazin-1-yl)-7-(3-hydroxynaphthalen-1-yl)-5,6,7,8-tetrahydropyrido[3,4-d]pyrimidin-2-yl)amino)-1-(4-((4-(4-(3-(2,4-dihydroxy-5-propylphenyl)-5-hydroxy-4H-1,2,4-triazol-4-yl)benzyl)piperazin-1-yl)methyl)piperidin-1-yl)propan-1-one, trifluoroacetic acid]
3 | 0.1 to 1 µM | 0.1 to 1 µM | 0.1 to 1 µM | C=CC(=O)N1CCN(c2nc(NCCC(=O)N[C@H](C)c3ccc(CN4CCC(Cc5ccc(-n6c(O)nnc6-c6cc(C(C)C)c(O)cc6O)cc5)CC4)cc3)nc3c2CCN(c2cc(O)cc4ccccc24)C3)CC1 [Compound 18, (R)-3-((4-(4-acryloylpiperazin-1-yl)-7-(3-hydroxynaphthalen-1-yl)-5,6,7,8-tetrahydropyrido[3,4-d]pyrimidin-2-yl)amino)-N-(1-(4-((4-(4-(3-(2,4-dihydroxy-5-isopropylphenyl)-5-hydroxy-4H-1,2,4-triazol-4-yl)benzyl)piperidin-1-yl)methyl)phenyl)ethyl)propanamide, trifluoroacetic acid]
4 | 0.1 to 1 µM | < 0.1 µM | > 1 µM | CCC(=O)N1CCN(c2nc(NCCC(=O)N3CCC(CN4CCN(Cc5ccc(-n6c(C(N)=O)nnc6-c6cc(CC)c(O)cc6O)cc5)CC4)CC3)nc3c2CCN(c2cc(O)cc4ccccc24)C3)CC1 [Compound 75, 5-(5-ethyl-2,4-dihydroxyphenyl)-4-(4-((4-((1-(3-((7-(3-hydroxynaphthalen-1-yl)-4-(4-propionylpiperazin-1-yl)-5,6,7,8-tetrahydropyrido[3,4-d]pyrimidin-2-yl)amino)propanoyl)piperidin-4-yl)methyl)piperazin-1-yl)methyl)phenyl)-4H-1,2,4-triazole-3-carboxamide, trifluoroacetic acid]
5 | 0.1 to 1 µM | 0.1 to 1 µM | 0.1 to 1 µM | CCC(=O)N1CCN(c2nc(NCCC(=O)N3CCC(CN4CCN(Cc5ccc(-n6c(C(=O)NC(C)C(F)(F)F)nnc6-c6cc(CC)c(O)cc6O)cc5)CC4)CC3)nc3c2CCN(c2cc(O)cc4ccccc24)C3)CC1 (stereo not drawn) [Compound 119, 5-(5-ethyl-2,4-dihydroxyphenyl)-4-(4-((4-((1-(3-((7-(3-hydroxynaphthalen-1-yl)-4-(4-propionylpiperazin-1-yl)-5,6,7,8-tetrahydropyrido[3,4-d]pyrimidin-2-yl)amino)propanoyl)piperidin-4-yl)methyl)piperazin-1-yl)methyl)phenyl)-N-(1,1,1-trifluoropropan-2-yl)-4H-1,2,4-triazole-3-carboxamide, trifluoroacetic acid]
6 | > 1 µM | > 1 µM | 0.1 to 1 µM | CCc1cc(-c2nnc(O)n2-c2ccc(CN3CCN(CC4CCN(c5nc6c(c(N7CCN(C(=O)C(F)(F)F)[C@@H](CC#N)C7)n5)CCN(c5cccc7cccc(Cl)c57)C6)CC4)CC3)cc2)c(O)cc1O [Compound 131, (S)-2-(4-(7-(8-chloronaphthalen-1-yl)-2-(4-((4-(4-(3-(5-ethyl-2,4-dihydroxyphenyl)-5-hydroxy-4H-1,2,4-triazol-4-yl)benzyl)piperazin-1-yl)methyl)piperidin-1-yl)-5,6,7,8-tetrahydropyrido[3,4-d]pyrimidin-4-yl)-1-(2,2,2-trifluoroacetyl)piperazin-2-yl)acetonitrile]
7 | 0.1 to 1 µM | > 1 µM | > 1 µM | C=CC(=O)N1CCN(c2nc(NCCC(=O)N3CCC(Cc4ccc(-n5c(C(=O)NCC(F)(F)F)nnc5-c5cc(C(C)C)c(O)cc5O)cc4)CC3)nc3c2CCN(c2cc(O)cc4ccccc24)C3)CC1 [Compound 11, 4-(4-((1-(3-((4-(4-acryloylpiperazin-1-yl)-7-(3-hydroxynaphthalen-1-yl)-5,6,7,8-tetrahydropyrido[3,4-d]pyrimidin-2-yl)amino)propanoyl)piperidin-4-yl)methyl)phenyl)-5-(2,4-dihydroxy-5-isopropylphenyl)-N-(2,2,2-trifluoroethyl)-4H-1,2,4-triazole-3-carboxamide, trifluoroacetic acid]
8 | 0.1 to 1 µM | 0.1 to 1 µM | 0.1 to 1 µM | C=CC(=O)N1CCN(c2nc(NCCC(=O)N3CCC(CN4CCN(Cc5ccc(-n6c(C(N)=O)nnc6-c6cc(CC)c(O)cc6O)cc5)CC4)CC3)nc3c2CCN(c2cccc4cccc(Cl)c24)C3)C[C@H]1CC#N [Compound 99, (R)-4-(4-((4-((1-(3-((4-(4-acryloyl-3-(cyanomethyl)piperazin-1-yl)-7-(8-chloronaphthalen-1-yl)-5,6,7,8-tetrahydropyrido[3,4-d]pyrimidin-2-yl)amino)propanoyl)piperidin-4-yl)methyl)piperazin-1-yl)methyl)phenyl)-5-(5-ethyl-2,4-dihydroxyphenyl)-4H-1,2,4-triazole-3-carboxamide, trifluoroacetic acid]
9 | 0.1 to 1 µM | 0.1 to 1 µM | 0.1 to 1 µM | C=C(F)C(=O)N1CCN(c2nc(N3CCC(N4CCN(Cc5ccc(-n6c(O)nnc6-c6cc(C(C)C)c(O)cc6O)cc5)CC4)CC3)nc3c2CCN(c2cccc4cccc(Cl)c24)C3)C[C@@H]1CC#N [Compound 132, (S)-2-(4-(7-(8-chloronaphthalen-1-yl)-2-(4-(4-(4-(3-(2,4-dihydroxy-5-isopropylphenyl)-5-hydroxy-4H-1,2,4-triazol-4-yl)benzyl)piperazin-1-yl)piperidin-1-yl)-5,6,7,8-tetrahydropyrido[3,4-d]pyrimidin-4-yl)-1-(2-fluoroacryloyl)piperazin-2-yl)acetonitrile]
10 | 0.1 to 1 µM | 0.1 to 1 µM | 0.1 to 1 µM | C=CC(=O)N1CCN(c2nc(NCCC(=O)N3CCC(Cc4ccc(CN(C)Cc5ccc(-n6c(O)nnc6-c6cc(C(C)C)c(O)cc6O)cc5)cc4)CC3)nc3c2CCN(c2cc(O)cc4ccccc24)C3)CC1 [Compound 19, 1-(4-(2-((3-(4-(4-(((4-(3-(2,4-dihydroxy-5-isopropylphenyl)-5-hydroxy-4H-1,2,4-triazol-4-yl)benzyl)(methyl)amino)methyl)benzyl)piperidin-1-yl)-3-oxopropyl)amino)-7-(3-hydroxynaphthalen-1-yl)-5,6,7,8-tetrahydropyrido[3,4-d]pyrimidin-4-yl)piperazin-1-yl)prop-2-en-1-one, trifluoroacetic acid]
11 | 0.1 to 1 µM | 0.1 to 1 µM | 0.1 to 1 µM | C=CC(=O)N1CCN(c2nc(NCCC(=O)N3CCC(CN4CCN(Cc5ccc(-n6c(C(=O)NCC(F)(F)F)nnc6-c6cc(C)c(O)cc6O)cc5)CC4)CC3)nc3c2CCN(c2cc(O)cc4ccccc24)C3)CC1 [Compound 10, 4-(4-((4-((1-(3-((4-(4-acryloylpiperazin-1-yl)-7-(3-hydroxynaphthalen-1-yl)-5,6,7,8-tetrahydropyrido[3,4-d]pyrimidin-2-yl)amino)propanoyl)piperidin-4-yl)methyl)piperazin-1-yl)methyl)phenyl)-5-(2,4-dihydroxy-5-methylphenyl)-N-(2,2,2-trifluoroethyl)-4H-1,2,4-triazole-3-carboxamide, trifluoroacetic acid]
12 | 0.1 to 1 µM | < 0.1 µM | > 1 µM | CCC(=O)N1CCN(c2nc(NCCC(=O)N[C@H](C)c3ccc(CN4CCC(Cc5ccc(-n6c(O)nnc6-c6cc(C(C)C)c(O)cc6O)cc5)CC4)cc3)nc3c2CCN(c2cc(O)cc4ccccc24)C3)CC1 [Compound 61]
13 | 0.1 to 1 µM | < 0.1 µM | > 1 µM | C=CC(=O)N1CCN(c2nc(NCCC(=O)N3CCC(CN4CCN(Cc5ccc(-n6c(C(N)=O)nnc6-c6cc(CC)c(O)cc6O)cc5)CC4)CC3)nc3c2CCN(c2cc(O)cc4ccccc24)C3)CC1 [Compound 71, 4-(4-((4-((1-(3-((4-(4-acryloylpiperazin-1-yl)-7-(3-hydroxynaphthalen-1-yl)-5,6,7,8-tetrahydropyrido[3,4-d]pyrimidin-2-yl)amino)propanoyl)piperidin-4-yl)methyl)piperazin-1-yl)methyl)phenyl)-5-(5-ethyl-2,4-dihydroxyphenyl)-4H-1,2,4-triazole-3-carboxamide]
